From patent publication US5627152A, “Method for increasing bodyweight” (Telluride Pharmaceutical Corporation, priority 1995, dated 1997)

Experiments:
[1] = Oral glutathione capsules in healthy subjects: bodyweight and percent bodyfat by the caliper method; type: in vivo, human; settings: for percentage bodyfat at end of treatment: caliper method
Protocol: A healthy subject who wished to gain more weight in the form of lean muscle tissue, was treated for five weeks with one capsule containing 250 mg glutathione four times daily resulting in a total daily dosage of 1000 mg glutathione.
A healthy subject who wished to add bodyweight in the form of lean muscle, was treated for seven weeks with one capsule containing 500 mg of glutathione, four times per day. The totally daily dose was 2,000 mg of glutathione.
A […] healthy male subject who wished to add bodyweight in the form of lean muscle, was treated for seven weeks with two capsule of 500 mg of glutathione, three times per day. The totally daily dose was 3,000 mg of glutathione.
A healthy subject who wished to add bodyweight in the form of lean muscle was treated for six weeks with two capsules containing 500 mg of glutathione, twice daily. The totally daily dose was 2,000 mg of glutathione.

guinea pigs = settings: high doses; cited from earlier work

Compound: N[C@@H](CCC(=O)N[C@@H](CS)C(=O)NCC(=O)O)C(=O)O [glutathione, -L-glutamyl-cysteinylglycine]
- percentage bodyfat at end of treatment ([1]; Example 1: 1000 mg/day, five weeks, start 20.1%): 18.6%
- fat at end of treatment ([1]; Example 1: 1000 mg/day, five weeks, start 25 pounds): 24 pounds
- muscle, bone and connective tissue at end of treatment ([1]; Example 1: 1000 mg/day, five weeks, start 100 pounds): 105 pounds
- percent change in lean bodyweight (gain) ([1]; Example 1: 1000 mg/day, five weeks, without a change in diet or exercise regimen): 5%
- bodyweight at end of treatment ([1]; Example 1: healthy person, 250 mg capsule four times daily (1000 mg/day), five weeks, start 125 pounds): 129 pounds
- percentage bodyfat at end of treatment ([1]; Example 2: 2,000 mg/day, seven weeks, start 24.9%): 22.3%
- fat at end of treatment ([1]; Example 2: 2,000 mg/day, seven weeks, start 55 pounds): 55 pounds
- muscle, bone and connective tissue at end of treatment ([1]; Example 2: 2,000 mg/day, seven weeks, start 165 pounds): 193 pounds
- percent change in lean body weight ([1]; Example 2: 2,000 mg/day, seven weeks, without a change in diet or exercise regimen): 17%
- bodyweight at end of treatment ([1]; Example 2: healthy person, 500 mg capsule four times per day (2,000 mg/day), seven weeks, start 220 pounds): 248 pounds
- percentage bodyfat at end of treatment ([1]; Example 3: 3,000 mg/day, seven weeks, start 18.5%): 15.1%
- percent change in lean body weight ([1]; Example 3: 3,000 mg/day, seven weeks, no change in diet or exercise regimen): 24.2%
- fat at end of treatment ([1]; Example 3: 3,000 mg/day, seven weeks, start 38 pounds): 36 pounds
- muscle, bone and connective tissue at end of treatment ([1]; Example 3: 3,000 mg/day, seven weeks, start 165 pounds): 205 pounds
- bodyweight at end of treatment ([1]; Example 3: healthy person, two 500 mg capsules three times per day (3,000 mg/day), seven weeks, start 203 pounds): 241 pounds
- percentage bodyfat at end of treatment ([1]; Example 4: 2,000 mg/day, six weeks, start 17.2%): 14.9%
- fat at end of treatment ([1]; Example 4: 2,000 mg/day, six weeks, start 36 pounds): 36 pounds
- muscle, bone and connective tissue at end of treatment ([1]; Example 4: 2,000 mg/day, six weeks, start 176 pounds): 203 pounds
- percent change in lean body weight ([1]; Example 4: 2,000 mg/day, six weeks, with a change in diet or exercise regimen (so in the source)): 15.3%
- bodyweight at end of treatment ([1]; Example 4: healthy person, two 500 mg capsules twice daily (2,000 mg/day), six weeks, start 212 pounds): 239 pounds
- effect on bodyweight (cachexia) (guinea pigs): promote cachexia
